According to patent US20250276009A1, “Therapeutic use of hydrogen sulfide in frostbite injury” ([(The)] London Health Sciences Centre Research Inc., priority 2024, published 2025):
Where two headings read alike, the source gives them in different places.

How the values were obtained:
[1] = tested on: CD31; test: Immunofluorescence staining of frostbite wound tissue, day 15: vascularization and angiogenesis marker; assay type: in vivo, C57BL/6 mice (Mus musculus); settings: for angiogenesis compared to vehicle control: daily topical in vehicle cream, day 15, p<0.01
Experimental: (§1) Based on a previously validated model [1], 100% ceramic magnets (diameter 18.0 mm, thickness 5.0 mm, weight 4.5 g) were used to induce frostbite injury. Magnets were frozen in dry ice (−80° C.) prior to animal skin preparation. The dorsal skin of C57BL/6 mice (Mus musculus) was pinched to create a skin fold and a silicone sheet was placed underneath as illustrated in FIG. 1D. The silicone sheet acted as a barrier to prevent the mice from possible systemic hypothermia while creating a precise injury and maximizing survival. Two frozen magnets were then placed on the skin from opposite sides of the skin fold such that they adhered with the middle of the circle outline at the peak of the fold's center as described by Auerbach et al., [1] and illustrated in FIG. 1D. After 1 minute, the magnets were removed and new frozen magnets simultaneously placed in order to keep the freezing temperature of the magnets consistent and ensured that no thawing of the skin occurred. A total of 3 magnet exchange cycles occurred in order to induce frostbite injury to the mice for 3 minutes after which the skin was allowed to thaw completely. […] The animals were placed on a heating pad set to 37° C. to mitigate the risk of death due to systemic hypothermia. Upon induction of frostbite injury, the mice were randomly assigned to the following groups: vehicle cream control, 200 nM AP39 plus vehicle cream, 1 μM AP39 plus vehicle cream, 150 μM STS plus vehicle cream, 200 μmol/kg GYY4137 plus vehicle cream, and received daily topical application of vehicle cream without H2S donor, vehicle cream containing 200 nM AP39 (200 μL), vehicle cream containing 1 μM AP39 (200 μL), vehicle cream containing 150 μM STS (200 μL) and vehicle cream containing 200 μmol/kg GYY4137 (200 μL) respectively until time of sacrifice.
(§2) Post-procedure analgesia included administration of meloxicam at 1 mg/kg/day for 3 days. Another group of mice that received no frostbite injury or room temperature magnet placement served as healthy controls. All groups of mice were sacrificed by CO2 euthanasia on day 15 after frostbite induction or room temperature magnet placement, and samples of the injured dorsal skin tissue were collected and stored in 10% neutral buffered formalin for histopathological analysis. The animals were euthanized on day 15 because this is the time point at which markers of wound healing were expected to be best seen in the wound as previously reported [5].
(§3) Immunofluorescence staining was performed to detect the expression of cleaved caspase-3 (1:100; a marker for apoptosis and is being used to assess frostbite damage), CD31 (1:100; a marker of vascularization and angiogenesis, as it is found on early endothelial cells), KI-67 (1:50; a marker of proliferation, which is abundant in a healing wound as granulation tissue forms and re-epithelialization occurs), fibronectin (1:100; secreted by fibroblasts to generate granulation tissue, which is the new connective tissue that covers a wound.), cytokeratin (1:200; a marker of differentiation and proliferation of keratinocytes, which are important for re-epithelialization of a wound) and CD163 (1:200; a macrophage-specific marker during wound healing) [7, 8]. These antibodies were purchased from Abcam in Toronto, Canada to examine the degree of frostbite injury as well as important healing stages including angiogenesis, re-epithelialization, granulation tissue formation and inflammation. Following a rehydration step in xylene and decreasing series of alcohol (100%, 95%, 70% and 50%) and de-ionized water, the tissue sections were washed with 1× phosphate buffered saline (PBS) for 10 minutes.

[2] = tested on: cleaved caspase-3; test: Immunofluorescence staining of frostbite wound tissue, day 15: apoptosis marker; assay type: in vivo, C57BL/6 mice (Mus musculus); settings: daily topical in vehicle cream, day 15, vs vehicle control
Experimental: as §1
Another group of mice that received no frostbite injury or room temperature magnet placement served as healthy controls. […]

[3] = tested on: CD163; test: Immunofluorescence staining of frostbite wound tissue, day 15: macrophage-specific marker; assay type: in vivo, C57BL/6 mice (Mus musculus); settings: for CD163 expression: day 15
Experimental: as §1, §2
(§4) Immunofluorescence staining was performed to detect the expression of cleaved caspase-3 (1:100; a marker for apoptosis and is being used to assess frostbite damage), CD31 (1:100; a marker of vascularization and angiogenesis, as it is found on early endothelial cells), KI-67 (1:50; a marker of proliferation, which is abundant in a healing wound as granulation tissue forms and re-epithelialization occurs), fibronectin (1:100; secreted by fibroblasts to generate granulation tissue, which is the new connective tissue that covers a wound.), cytokeratin (1:200; a marker of differentiation and proliferation of keratinocytes, which are important for re-epithelialization of a wound) and CD163 (1:200; a macrophage-specific marker during wound healing) [7, 8]. These antibodies were purchased from Abcam in Toronto, Canada to examine the degree of frostbite injury as well as important healing stages including angiogenesis, re-epithelialization, granulation tissue formation and inflammation. […]

[4] = tested on: frostbite injury on the dorsal skin of C57BL/6 mice; test: Frostbite wound size / wound healing after daily topical application of H2S donor in vehicle cream; assay type: in vivo, C57BL/6 mice (Mus musculus); settings: for frostbite wound size compared to vehicle-treated control mice / reduction of frostbite wound from day 4 to day 15 versus vehicle control: daily topical; for frostbite wound healing compared to vehicle control group: daily topical in vehicle cream until day 15; for reduction of frostbite wound from day 4 to day 15 versus vehicle control: 150 μM STS or 200 μmol/kg GYY4137 in hyaluronan/phosphatidylethanolamine vehicle cream
From the text: The Animal Use Committee of the University of Western Ontario approved all experimental procedures. The experimental procedures were considered as Category D from the Canadian Council of Animal Care's Categories of Invasiveness for Animal Experiments. A total of 25 […] mice aged between 8-10 weeks old were obtained from Charles River Canada (Senneville, Quebec, Canada) and housed 5 per cage under a 12-hour light/dark cycle at the Health Sciences Animal Care Facility at the University of Western Ontario (London, Ontario, Canada). Mice were randomly assigned to 5 groups being healthy control (n=5), crush control (n=5), vehicle control (n=5), 200 nM AP39 (n=5) and 1 μM AP39 (n=5).
To ease the process of skin preparation, mice were initially anesthetized with a combination of 20 mg/ml xylazine and 100 mg/mL ketamine intraperitoneally, and the dorsal fur of the animals were shaved using electric clippers from the top of the hind legs to the base of the neck. A depilatory cream was then used to remove any fur still remaining. General anesthesia was maintained by inhalation of 5% isoflurane and oxygen delivered at 400 mL/minute to minimize the time of recovery post-anesthesia. Following complete fur removal, the skin of the animal was cleaned completely of the hair removal cream using an alcohol prep pad. Next, a silicone sheet was used as a template to trace a uniform circle on the surface of the skin using a permanent marker. The circular outline on the back of the animal was used as a guide during frostbite injury (see FIGS. 1A to 1E).
The vehicle cream containing hyaluronan and phosphatidylethanolamine (referred to as HEPE) as active ingredients, was provided by Dr. Eva Turley, and allowed for delivery of AP39 to the vascularized layers of the dermis. AP39 was generously provided by Dr. Matthew Whiteman (Exeter, UK) and diluted to a stock concentration of 1 mM in DMSO. […] To prepare the cream+H2S donor compound, the H2S donor was added via micropipette combined by stirring and subsequent mixing using a vortex device to final concentrations of 200 nM, 1 µM and 150 μM.

[5] = tested on: frostbite injury on the dorsal skin of C57BL/6 mice; test: Histopathological scoring (H&E) of frostbite wound tissue, day 15; assay type: in vivo, C57BL/6 mice (Mus musculus); settings: for progress of frostbite wound healing phase (histopathology, collective): daily topical in vehicle cream, day 15; for chronic inflammation (histological score 0-3) vs vehicle control: 200 μmol/kg GYY4137 or 150 μM STS
Experimental: The formalin-fixed skin tissue samples were embedded in paraffin blocks and sectioned at 8-μm thick on a microtome and collected on SuperFrost Plus® glass slides (J1800AMNZ, Thermo Fisher Scientific Inc., Germany). Histology was performed on the tissue sections using hematoxylin and eosin (H&E) staining to visualize general tissue morphology and assess the degree of tissue injury. A modified version of a previously developed histological scoring system established by Abramov et al was used for this study. The histopathological scoring was assessed blindly by a dermatopathologist for 5 parameters of healing (acute inflammation, chronic inflammation, amount of granulation tissue, fibroblast maturation and re-epithelialization) and assigned a score as per the following scheme: 0=None; 1=Scant; 2=Moderate; 3=Abundant. Acute inflammation was scored based on the presence of neutrophils while chronic inflammation was evaluated based on the presence of plasma cells and monocytes. Fibroblast maturation was determined on the basis of shape and alignment of these cells.

[6] = tested on: fibronectin; test: Immunofluorescence staining of frostbite wound tissue, day 15: granulation tissue marker; assay type: in vivo, C57BL/6 mice (Mus musculus); settings: for granulation tissue formation compared to vehicle control: daily topical in vehicle cream, day 15, p<0.001; for fibronectin expression: day 15
Experimental: as §1, §2, §3

[7] = tested on: KI-67; test: Immunofluorescence staining of frostbite wound tissue, day 15: proliferation marker; assay type: in vivo, C57BL/6 mice (Mus musculus); settings: for cell proliferation compared to vehicle control: daily topical in vehicle cream, day 15, p<0.001
Experimental: as §1, §2, §4

[8] = tested on: cytokeratin; settings: day 15
Experimental: as §1
Post-procedure analgesia included administration of meloxicam at 1 mg/kg/day for 3 days. Another group of mice that received no frostbite injury or room temperature magnet placement served as healthy controls. All groups of mice were sacrificed by CO2 euthanasia on day 15 after frostbite induction or room temperature magnet placement, and samples of the injured dorsal skin tissue were collected and stored in 10% neutral buffered formalin for histopathological analysis. The animals were euthanized on day 15 because this is the time point at which markers of wound healing were expected to be best seen in the wound as previously reported [5]. […]

[9] = 1 μM AP39, relative to 200 nM AP39, day 15, p<0.05
[10] = 1 μM AP39 vs 200 nM AP39 and vehicle control, day 15, p<0.05
[11] = 150 μM STS in Aveeno vs Aveeno without STS
[12] = 150 μM STS in Dove vs Dove without STS
[13] = 150 μM STS in Neutrogena vs Neutrogena without STS
[14] = 150 μM STS in Nivea vs Nivea without STS
[15] = 150 μM STS with Nivea, vs Nivea alone

## O=C(CCCCCCCCC[P+](c1ccccc1)(c1ccccc1)c1ccccc1)Oc1ccc(-c2cc(=S)ss2)cc1.[Br-] [AP39, (10-oxo-10-(4-(3-thioxo-3H-1,2-dithiol-5-yl)phenoxy)decyl)triphenylphosphonium bromide]
[1]; 200 nM AP39, day 15, p<0.05
  CD31 expression: markedly expressed
[1]; [9]
  CD31 expression: significantly reduced
[1]
  angiogenesis compared to vehicle control: improved
[2]
  apoptosis in frostbite injury (cleaved caspase-3 expression): no effect
[3]; 200 nM AP39, day 15
  CD163 expression (M2-like anti-inflammatory macrophages): increased anti-inflammatory activity
[4]; 200 nM AP39 in vehicle cream containing hyaluronan and phosphatidylethanolamine, day 4 to day 15
  frostbite wound size compared to vehicle-treated control mice: progressively reduced wound size
[4]; 1 μM AP39 in vehicle cream containing hyaluronan and phosphatidylethanolamine, day 4 to day 15
  frostbite wound size compared to vehicle-treated control mice: progressively reduced wound size
[4]
  frostbite wound healing compared to vehicle control group: improved wound healing
[5]; 200 nM AP39, day 15, p>0.05
  chronic inflammation (histological score 0-3): did not change
[5]; 200 nM AP39 vs 1 μM AP39 and vehicle control, day 15, p<0.05
  fibroblast maturation (histological score 0-3): highest
[5]; 1 μM AP39, day 15, p>0.05
  chronic inflammation (histological score 0-3): did not change
[5]; [10]
  acute inflammation (histological score 0-3): significantly greater
  amount of granulation tissue (histological score 0-3): markedly increased
[5]; AP39 (200 nM and 1 μM) vs vehicle control, day 15, p>0.05
  wound re-epithelialization (histological score 0-3): increased wound re-epithelialization (epithelial restitution) albeit not significantly different
[5]
  progress of frostbite wound healing phase (histopathology, collective): hastened frostbite wound healing from inflammatory to proliferative phase
[6]; 200 nM AP39, day 15
  fibronectin expression compared to vehicle control mice: significantly increased expression
[6]; 1 μM AP39, day 15
  fibronectin expression compared to vehicle control mice: significantly increased expression
[6]
  granulation tissue formation compared to vehicle control: improved
[7]; 200 nM AP39, day 15, p<0.05
  KI-67 expression: markedly expressed
[7]; [9]
  KI-67 expression: significantly reduced
[7]
  cell proliferation compared to vehicle control: improved

## C1COCCN1.COc1ccc(P(=S)(S)N2CCOCC2)cc1 (centres unmarked) [GYY4137]
[1]
  angiogenesis compared to vehicle control: improved
[2]
  apoptosis in frostbite injury (cleaved caspase-3 expression): no effect
[4]
  reduction of frostbite wound from day 4 to day 15 versus vehicle control: slightly smaller than that of the vehicle control
  frostbite wound healing compared to vehicle control group: improved wound healing
[5]; day 15, p>0.05
  chronic inflammation (histological score 0-3) vs vehicle control: did not show significant difference
[5]
  progress of frostbite wound healing phase (histopathology, collective): hastened frostbite wound healing from inflammatory to proliferative phase
[6]
  granulation tissue formation compared to vehicle control: improved
[7]
  cell proliferation compared to vehicle control: improved

## O=S([O-])([O-])=S.[Na+].[Na+] [STS, sodium thiosulfate]
[1]; 150 μM STS in Aveeno vs Aveeno without STS, day 15
  CD31 expression: significant upregulation
[1]; 150 μM STS in Dove vs Dove without STS, day 15
  CD31 expression: significant upregulation
[1]; 150 μM STS in Neutrogena vs Neutrogena without STS, day 15
  CD31 expression: No significant change
[1]; 150 μM STS in Nivea vs Nivea without STS, day 15
  CD31 expression: significant upregulation
[1]
  angiogenesis compared to vehicle control: improved
[2]
  apoptosis in frostbite injury (cleaved caspase-3 expression): no effect
[3]; [11]
  CD163 expression: significant increase
[3]; [12]
  CD163 expression: significant increase
[3]; [13]
  CD163 expression: decrease in CD163 expression albeit not significant
[3]; [14]
  CD163 expression: significant increase
[4]; 150 μM STS in commercially available creams (Aveeno, Dove, Neutrogena, Nivea), day 4 to day 15
  wound size compared to the corresponding vehicle control without STS: progressively reduced wound size
[4]
  reduction of frostbite wound from day 4 to day 15 versus vehicle control: slightly smaller than that of the vehicle control
  frostbite wound healing compared to vehicle control group: improved wound healing
[4]; 150 μM STS with Aveeno, vs Aveeno alone
  wound size, day 15: reduced wound size
[4]; 150 μM STS with Dove, vs Dove alone
  wound size, day 15: reduced wound size
[4]; [15]
  wound size, day 4: reduced wound size
  wound size, day 15: reduced wound size
[4]; STS via Aveeno and Nivea creams compared to Dove and Neutrogena
  wound healing, comparison of delivery creams: improved wound healing compared to Dove® and Neutrogena®
[8]; [11]
  cytokeratin expression: significantly increased
[8]; [12]
  cytokeratin expression: No significant change
[8]; [13]
  cytokeratin expression: significantly increased
[8]; [14]
  cytokeratin expression: significantly increased
[5]; day 15, p>0.05
  chronic inflammation (histological score 0-3) vs vehicle control: did not show significant difference
[5]
  progress of frostbite wound healing phase (histopathology, collective): hastened frostbite wound healing from inflammatory to proliferative phase
[6]; [11]
  fibronectin expression: significantly increased
[6]; [12]
  fibronectin expression: did not increase fibronectin expression significantly
[6]; [13]
  fibronectin expression: did not increase fibronectin expression significantly
[6]; [14]
  fibronectin expression: significantly increased
[6]
  granulation tissue formation compared to vehicle control: improved
[7]
  cell proliferation compared to vehicle control: improved
